Reference: patent US4578395A, “Certain aralkylaminoalkyl esters of 1,4 dihydropyridines as antihypertensive” (Teijin Limited, priority 1983, dated 1986)
Where a name gives a salt, the structure may show the parent alone.

Columns and labels:
anesthetized rats = assay: Hypotensive activity by intravenous administration in anesthetized rats (Example 23); assay type: in vivo, Male Wistar rats; conditions: for ED20: Rattus norvegicus, iv, anesthetized Wistar rats about 250 g, read-out: ED20 (dose decreasing mean blood pressure by 20%); for Duration T1/2 (half-life of hypotensive action): i.v., dose 10
Experimental: (§1) Male Wistar rats weighing about 250 g were used. They were anesthetized with urethane (500 mg/kg) and α-chloralose (100 mg/kg) intraperitoneal injection.
(§2) The test compound was dissolved in a small quantity of ethanol and the solution, which was then diluted with physiological saline to have a final concentration of ethanol kept at 5% or lower, was intravenously injected through a catheter inserted into the femoral vein.
(§3) The blood pressure was recorded with the pressure transducer via the catheter inserted into the common carotid artery of the rats.
(§4) Hypotensive activity of the test compound was indicated by the dose (ED20 μ/kg) required for decreasing the mean blood pressure by 20% as compared with the mean blood pressure before the administration.
(§5) To determine the duration of the hypotensive action of the test compound, half-life of hypotensive action T^1 /2) was measured.

[1] = system: SHR (Spontaneously Hypertensive Rats); assay: Antihypertensive activity in SHR; assay type: in vivo, Male SHR (Spontaneously Hypertensive Rats); conditions: no anesthesia
Experimental: Male SHR (14 to 16 weeks old) fasted for more than 16 hours were used. […] When one hour or more passed after the rats woke up out of the ether, they were administered the test compound orally. The blood pressure was measured with the pressure transducer via the catheter inserted into the femoral artery.
The test compound was dissolved in a small quantity of ethanol and diluted with water to be adjusted for administration.
Changes in the mean blood pressure were obtained from the equation mentioned below. The Basic and Clinical Study, vol. 14, p. 4495 (1980) is a useful literature to be referred to for making this kind of experiment. [formula]

anesthetized rat = assay: Hypotensive activity by intravenous administration in anesthetized rat (Example 27); assay type: in vivo, Male Wistar rats; conditions: for ED20: Rattus norvegicus, iv, anesthetized Wistar rats about 300 g, read-out: ED20 (dose decreasing mean blood pressure by 20%); for Duration T1/2: i.v.
Experimental: as §1, §2, §3, §4, §5
Male Wistar rats weighing about 300 g were used. The measurement of hypotensive activity was conducted according to the same method as Example 23.

mean blood pressure = assay: Action on mean blood pressure in anesthetized dog; assay type: in vivo, male beagle dog; conditions: 10 μg/kg i.v.
Experimental: (§6) A male beagle dog weighing about 10 kg was anesthetized with sodium pentobarbital (35 mg/kg i.v.). The test compound was dissolved in a small quantity of ethanol, diluted with an isotonic sodium chloride solution, and was injected into the right femoral vein.
The mean blood pressure (MBP) was measured with the pressure transwer via the cannula inserted into the right femoral artery of the male beagle dog. The changes in the blood pressure after the administration of the test compound are shown in percentages in Table 5.

platelet aggregation = assay: In vitro inhibitory activity of platelet aggregation; assay type: cell-based, male Hartley guinea pigs; conditions: Cavia porcellus, Platelet; Conc. 100 μM, AA 75 μM
Experimental: The in vitro platelet aggregation inhibiting activities of the compounds of the invention were examined by using guinea pigs. Blood was withdrawn by cardiac puncture from male Hartley guinea pigs weighing […]. A mixture of a 3.8% trisodium citrate solution and the blood in a ratio of 1:9 was centrifuged at a speed of 800 rpm for 10 minutes. The upper layer was separated as platelet-rich plasma (PRP). The lower layer was further centrifuged at a separated as platelet-poor plasma (PPP). The number of platelets was adjusted to 5×10^5 /μl to 6×10^5 /μl by filuting the PRP with PPP. 25 microliters of the test compounds prepared as shown below was added in an amount of 25 microliters of PRP after the adjustment, and the mixture was pre-incubated at 37° C. for 2 minutes, and then 75 μM (final) of AA was added. By using an aggregometer (37° C., 1,100 rpm), changes in transmission were recorded.
The test compound was dissolved in ethanol to a concentration of 10 mg/ml. When its activity was measured, it was used after being diluted with phosphate buffer (pH 7.4). Furthermore, after dilution with the buffer, the test compound was left to stand at 0° C. for 4 hours, and the activity of the test compound was similarly measured.
The rate of inhibition of platelet aggregation was determined from the following equation. [formula]

[2] = system: peripheral blood vessels (femoral artery); assay: Action on peripheral blood vessels (femoral blood flow) in anesthetized dog; assay type: in vivo, male beagle dog; conditions: 3 μg/kg i.v.
Experimental: as §6
The carotic blood flow (CBF) and the femoral blood flow (FBF) were measured with the electromagnetic blood flowmeter (MFV-1200 made by Japan Photoelectric Co., Ltd.) via probe for measuring the blood flow volume set in the right common carotid artery and the left femoral artery of the male beagle dog respectively.

[3] = Light stability in methanol solution; assay type: physicochemical
Experimental: 1 mg of compound (156) hydrochloride was dissolved in 100 ml of methanol. The solution was placed in a transparent glass test tube, and after the test tube was tightly stoppered, it was allowed to stand by the window of the laboratory. Part of the solution was taken at regular intervals and subjected to high performance liquid chromatograph to determined the remaining quantity of compound (156) hydrochloride contained in the solution. The same experiment was conducted with nicardipine hydrochloride as the control.

conscious rats = assay: Antihypertensive activity by oral administration in conscious rats; assay type: in vivo, Male Wistar rats; conditions: 10 mg/kg oral
Experimental: When one hour or more passed after the rats were aroused, they were administered the test compound orally.
The blood pressure in the femoral artery was recorder and changes in the mean blood pressure were obtained from the following equation. [formula]

rats periphery = assay: Vasodilative activity in rats periphery (constant volume blood perfusion); assay type: in vivo, Male SD strain rats
Experimental: Male SD strain rats, weighing 350 g to 450 g, were used. They were anesthetized with sodium pentobarbital 60 mg/kg i.p. […] The solution of the test compound was infused into the perfusion blood on the peripheral side with a perfusion pump, and changes in perfusion pressure were measured. The activity of the test compound was determined as the ratio of the relative activity of the test compound against papaverine obtained from the dose-response curves.

## COC(=O)C1=C(C)NC(C)=C(C(=O)OCC(C)(C)CN(C)Cc2ccccc2)C1c1cccc([N+](=O)[O-])c1 (stereo not drawn) [(302) hydrochloride, 3-(N-Benzyl-N-methylamino)-2,2-dimethylpropyl methyl 2,6-dimethyl-4-(3-nitrophenyl)-1,4-dihydropyridine-3,5-dicarboxylate]
Anesthetized rats
  ED20: 0.0091 mg/kg
  Duration T1/2 (half-life of hypotensive action): > 30 min

## COC(=O)C1=C(C)NC(C)=C(C(=O)OCC(C)(C)CN(C)Cc2ccccc2)C1c1cccc([N+](=O)[O-])c1F (stereo not drawn) [(130) hydrochloride, 3-(N-Benzyl-N-methylamino)-2,2-dimethylpropyl methyl 2,6-dimethyl-4-(2-fluoro-3-nitrophenyl)-1,4-dihydropyridine-3,5-dicarboxylate]
[1]; 3 mg/kg oral, 30 min.
  Changes in MBP: -67 ± 13 mmHg
[1]; 3 mg/kg oral, 60 min.
  Changes in MBP: -62 ± 13 mmHg
[1]; 3 mg/kg oral, 90 min.
  Changes in MBP: -60 ± 14 mmHg
[1]; 3 mg/kg oral, 2 hr.
  Changes in MBP: -54 ± 11 mmHg
[1]; 3 mg/kg oral, 3 hr.
  Changes in MBP: -48 ± 13 mmHg
[1]; 3 mg/kg oral, 5 hr.
  Changes in MBP: -40 mmHg
[1]; 3 mg/kg oral, 7 hr.
  Changes in MBP: -29 ± 8 mmHg
Anesthetized rat
  ED20: 0.0147 mg/kg
Anesthetized rat; dose 10
  Duration T1/2: 15 min
Anesthetized rats
  ED20: 0.016 mg/kg
  Duration T1/2 (half-life of hypotensive action): > 30 min
Mean blood pressure; 0.5 min.
  Changes in MBP: -7 ± 1%
Mean blood pressure; 1 min.
  Changes in MBP: -11 ± 1%
Mean blood pressure; 2 min.
  Changes in MBP: -14 ± 1%
Mean blood pressure; 5 min.
  Changes in MBP: -16 ± 2%
Mean blood pressure; 10 min.
  Changes in MBP: -19 ± 3%
Mean blood pressure; 15 min.
  Changes in MBP: -20 ± 3%

## COC(=O)C1=C(C)NC(C)=C(C(=O)OCC(C)(C)CN(C)Cc2ccccc2)C1c1cccc(Cl)c1F (stereo not drawn) [(156) hydrochloride, 3-(N-Benzyl-N-methylamino)-2,2-dimethylpropyl methyl 2,6-dimethyl-4-(3-chloro-2-fluorophenyl)-1,4-dihydropyridine-3,5-dicarboxylate]
[1]; 3 mg/kg oral, 30 min.
  Changes in MBP: -41 ± 8 mmHg
[1]; 3 mg/kg oral, 60 min.
  Changes in MBP: -39 ± 7 mmHg
[1]; 3 mg/kg oral, 90 min.
  Changes in MBP: -35 ± 5 mmHg
[1]; 3 mg/kg oral, 2 hr.
  Changes in MBP: -28 ± 6 mmHg
[1]; 3 mg/kg oral, 3 hr.
  Changes in MBP: -28 ± 6 mmHg
[1]; 3 mg/kg oral, 5 hr.
  Changes in MBP: -18 mmHg
[1]; 3 mg/kg oral, 7 hr.
  Changes in MBP: -20 ± 4 mmHg
Platelet aggregation
  inhibition at 100 µM: -1.9 ± 2.5%
[2]; 0.5 min.
  Changes in FBF: 0 ± 0%
[2]; 1 min.
  Changes in FBF: -1 ± 3%
[2]; 2 min.
  Changes in FBF: +5 ± 5%
[2]; 5 min.
  Changes in FBF: +19 ± 5%
[2]; 10 min.
  Changes in FBF: +20 ± 10%
Anesthetized rat
  ED20: 0.0245 mg/kg
Anesthetized rat; dose 30
  Duration T1/2: 8.5 min
[3]
  light stability compared with nicardipine hydrochloride: better light stability than nicardipine hydrochloride
[3]; light, 2 hr., read-out: Remaining percentage
  remaining at 2 h: 100%
[3]; light, 4 hr., read-out: Remaining percentage
  remaining at 4 h: 99%
[3]; light, 6 hr., read-out: Remaining percentage
  remaining at 6 h: 100%
Anesthetized rats
  ED20: 0.0149 mg/kg
  Duration T1/2 (half-life of hypotensive action): 20 min

## COC(=O)C1=C(C)NC(C)=C(C(=O)OCC(C)(C)CN(C)Cc2c(Cl)cccc2Cl)C1c1cccc(Cl)c1F (stereo not drawn) [(202) hydrochloride, 3-(N-2,6-Dichlorobenzyl-N-methylamino)-2,2-dimethylpropyl methyl 2,6-dimethyl-4-(3-chloro-2-fluorophenyl)-1,4-dihydropyridine-3,5-dicarboxylate]
Conscious rats; after 30 min
  Changes in mean blood pressure: -39 mmHg
Conscious rats; after 60 min
  Changes in mean blood pressure: -40 mmHg
Conscious rats; after 90 min
  Changes in mean blood pressure: -38 mmHg
Conscious rats; after 2 hr
  Changes in mean blood pressure: -33 mmHg
Conscious rats; after 3 hr
  Changes in mean blood pressure: -33 mmHg
Conscious rats; after 5 hr
  Changes in mean blood pressure: -24 mmHg
Conscious rats; after 7 hr
  Changes in mean blood pressure: -23 mmHg

## COC(=O)C1=C(C)NC(C)=C(C(=O)OCC(C)(C)CN(C)C)C1c1cccc([N+](=O)[O-])c1Cl (stereo not drawn) [reference compound]
Anesthetized rat
  ED20: 0.288 mg/kg
Anesthetized rat; dose 300
  Duration T1/2: 3.5 min

## COC(=O)C1=C(C)NC(C)=C(C(=O)OCCN(C)Cc2ccccc2)C1c1cccc([N+](=O)[O-])c1F (stereo not drawn) [(104) hydrochloride, 2-(N-Benzyl-N-methylamino)ethyl methyl 2,6-dimethyl-4-(2-fluoro-3-nitrophenyl)-1,4-dihydropyridine-3,5-dicarboxylate]
Rats periphery; dosage 0.1 μg/kg
  relative vasodilative activity against papaverine: 30 times
Rats periphery; dosage 1 μg/kg
  relative vasodilative activity against papaverine: 50 times

## COC(=O)C1=C(C)NC(C)=C(C(=O)OCC(C)(C)CN(C)C)C1c1cccc(Cl)c1F (stereo not drawn) [reference compound]
Anesthetized rat
  ED20: 0.0807 mg/kg
Anesthetized rat; dose 100
  Duration T1/2: 4.6 min

## COC(=O)C1=C(C)NC(C)=C(C(=O)OCCN(C)Cc2ccccc2)C1c1cccc(Cl)c1F (stereo not drawn) [(106) hydrochloride, 2-(N-Benzyl-N-methylamino)ethyl methyl 2,6-dimethyl-4-(3-chloro-2-fluorophenyl)-1,4-dihydropyridine-3,5-dicarboxylate]
[1]; 10 mg/kg oral, 30 min.
  Changes in MBP: -56 ± 6 mmHg
[1]; 10 mg/kg oral, 60 min.
  Changes in MBP: -53 ± 11 mmHg
[1]; 10 mg/kg oral, 90 min.
  Changes in MBP: -46 ± 10 mmHg
[1]; 10 mg/kg oral, 2 hr.
  Changes in MBP: -47 ± 11 mmHg
[1]; 10 mg/kg oral, 3 hr.
  Changes in MBP: -39 ± 10 mmHg
[1]; 10 mg/kg oral, 5 hr.
  Changes in MBP: -37 mmHg
[1]; 10 mg/kg oral, 7 hr.
  Changes in MBP: -31 ± 7 mmHg
